Laboratory results from the supplement of paper PMC10307832.

Legend:
Test in all cases: relative viability (nuclei count vs DMSO), 5 days (fraction); higher = more cells survive
Nelarabine + Pemetrexed = compound: COc1nc(N)nc2c1ncn2[C@@H]1O[C@H](CO)[C@@H](O)[C@@H]1O [Nelarabine] + Nc1nc2[nH]cc(CCc3ccc(C(=O)N[C@@H](CCC(=O)O)C(=O)O)cc3)c2c(=O)[nH]1 [Pemetrexed] (partner 0.2 µM)
Procedure, shortened: (§1)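 Medians of duplicate plates are given as relative viability. That measure is the nuclei count in treated wells divided by the count in vehicle wells. Counts were taken on 4× images of lung cancer cell lines in 1536-well plates, 5 days after pin-tool dosing the day after seeding with one drug alone or a fixed anchor-drug dose plus five library-drug doses (not always all listed) in √10 steps.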

Adavosertib + OSI-027 = compound: C=CCn1c(=O)c2cnc(Nc3ccc(N4CCN(C)CC4)cc3)nc2n1-c1cccc(C(C)(C)O)n1 [Adavosertib] + COc1cccc2cc(-c3nc([C@H]4CC[C@H](C(=O)O)CC4)n4ncnc(N)c34)[nH]c12 [OSI-027] (partner 0.5 µM)
Procedure, shortened: as §1

Nelarabine = compound: COc1nc(N)nc2c1ncn2[C@@H]1O[C@H](CO)[C@@H](O)[C@@H]1O [Nelarabine]
Procedure, shortened: (§2)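 Cells of lung cancer lines were placed in 1536-well plates and kept overnight at 37 °C. Pinning then delivered five library-drug doses (not always all listed), spaced by √10, onto plates anchored with vehicle, and the cells were left 5 days without changing medium. One step fixed, permeabilised and stained them with Hoechst, and MetaXpress counted nuclei in 4× images. Viability, as a median over plates, is treated-well nuclei divided by vehicle-well nuclei, with acceptance only at control CV below 25% and at least one doubling.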

Adavosertib = compound: C=CCn1c(=O)c2cnc(Nc3ccc(N4CCN(C)CC4)cc3)nc2n1-c1cccc(C(C)(C)O)n1 [Adavosertib]
Procedure, shortened: as §2

| Cell Line | relative viability (Nelarabine + Pemetrexed; first compound 0.01 µM) | relative viability (Nelarabine + Pemetrexed; first compound 0.03162 µM) | relative viability (Nelarabine + Pemetrexed; first compound 0.1 µM) | relative viability (Nelarabine + Pemetrexed; first compound 0.3162 µM) | relative viability (Nelarabine + Pemetrexed; first compound 1 µM) | relative viability (Adavosertib + OSI-027; first compound 0.01 µM) | relative viability (Adavosertib + OSI-027; first compound 0.03162 µM) | relative viability (Adavosertib + OSI-027; first compound 0.1 µM) | relative viability (Adavosertib + OSI-027; first compound 0.3162 µM) | relative viability (Nelarabine; 0.01 µM) | relative viability (Nelarabine; 0.03162 µM) | relative viability (Nelarabine; 0.1 µM) | relative viability (Nelarabine; 0.3162 µM) | relative viability (Nelarabine; 1 µM) | relative viability (Adavosertib; 0.01 µM) | relative viability (Adavosertib; 0.03162 µM) | relative viability (Adavosertib; 0.1 µM) | relative viability (Adavosertib; 0.3162 µM) |
| --- | --- | --- | --- | --- | --- | --- | --- | --- | --- | --- | --- | --- | --- | --- | --- | --- | --- | --- |
| NCI-H1993 | 0.632 | 0.477 | 0.598 | 0.64 | 0.67 | 0.559 | 0.537 | 0.638 | 0.573 | 1.03 | 0.863 | 1.02 | 0.959 | 0.987 | 0.9 | 0.996 | 0.925 | 1.1 |
| NCI-H23 | 1.04 | 0.729 | 0.771 | 0.71 | 0.666 | 0.604 | 0.631 | 0.553 | 0.327 | 1.22 | 0.911 | 1.01 | 0.987 | 0.96 | 0.925 | 0.98 | 0.659 | 0.313 |
| NCI-H1650 | 0.531 | 0.406 | 0.381 | 0.432 | 0.343 | 0.447 | 0.775 | 0.563 | 0.384 | 1.13 | 0.999 | 0.845 | 0.978 | 0.928 | 0.867 | 0.981 | 0.943 | 0.472 |
| NCI-H2023 | 0.353 | 0.365 | 0.268 | 0.244 | 0.228 | 0.465 | 0.35 | 0.304 | 0.203 | 1.48 | 1.05 | 0.97 | 1.02 | 0.851 | 0.892 | 0.87 | 0.752 | 0.451 |
| COR-L23 | 0.205 | 0.194 | 0.193 | 0.184 | 0.203 | 0.858 | 0.745 | 0.717 | 0.349 | 1.49 | 1.21 | 0.96 | 1.06 | 1.07 | 1.14 | 1.02 | 1.03 | 0.585 |
| LCLC-97TM1 | – | – | 0.153 | 0.2 | 0.169 | 0.484 | 0.459 | 0.584 | 0.49 | 0.939 | – | 0.971 | 0.95 | 0.878 | 0.955 | 1.02 | 1.11 | 0.71 |
| NCI-H441 | 0.249 | 0.277 | 0.27 | 0.238 | 0.282 | 0.758 | 0.56 | 0.471 | 0.425 | 1.31 | 1.11 | 0.987 | 1.14 | 1.09 | 1.16 | 1.01 | 1.19 | 1.02 |
| NCI-H1734 | 0.416 | 0.473 | 0.368 | 0.48 | 0.464 | 0.608 | 0.638 | 0.604 | 0.377 | 1.16 | 0.96 | 0.997 | 1.02 | 1.05 | 1.03 | 0.972 | 1 | 0.676 |
| NCI-H1437 | 0.344 | 0.359 | 0.301 | 0.39 | 0.323 | 0.931 | 0.868 | 0.973 | 0.788 | 1.21 | 0.989 | 0.994 | 1.04 | 0.918 | 1.02 | 0.912 | 1.03 | 0.981 |
| NCI-H1651 | 0.406 | 0.548 | 0.63 | 0.643 | 0.564 | 0.577 | 0.571 | 0.781 | 0.539 | 1.1 | 1.07 | 1.06 | 1.08 | 1.01 | 0.947 | 0.985 | 0.979 | 0.951 |
| NCI-H838 | 0.268 | 0.252 | 0.287 | 0.278 | 0.282 | 0.425 | 0.346 | 0.391 | 0.388 | 1.3 | 0.893 | 0.986 | 1.05 | 1.04 | 0.978 | 0.919 | 0.996 | 0.948 |
| NCI-H522 | 1.1 | 0.923 | 1.03 | 0.999 | 1.11 | 0.809 | 0.784 | 0.718 | 0.659 | 1.01 | 0.949 | 1.09 | 0.843 | 1.05 | 1.04 | 0.975 | 1.05 | 1.06 |
| NCI-H460 | 0.0547 | 0.0633 | 0.0599 | 0.0615 | 0.0625 | 0.758 | 0.667 | 0.561 | 0.341 | 1.24 | 1.09 | 1.01 | 1.2 | 1 | 1.03 | 1.01 | 1.02 | 1.08 |
| HCC-78 | 0.879 | 0.925 | – | 0.953 | 0.886 | 0.355 | 0.354 | 0.325 | 0.339 | 1.01 | 0.942 | – | 1.05 | 0.932 | 0.85 | 0.973 | 1.03 | 1.04 |
| SK-LU-1 | 1.19 | 0.796 | 1.06 | 0.995 | 1.04 | 0.394 | 0.324 | 0.296 | 0.182 | 1.35 | 0.885 | 1.1 | 1.2 | 1.18 | 1.1 | 1.04 | 0.886 | 0.488 |
| NCI-H2170 | 0.269 | 0.262 | 0.228 | 0.318 | 0.303 | 0.703 | 0.786 | 0.632 | 0.597 | 1.16 | 0.912 | 0.956 | 1.07 | 1 | 1.03 | 0.959 | 0.888 | 0.819 |
| HOP-62 | 0.412 | 0.347 | 0.307 | 0.318 | 0.33 | 0.92 | 0.907 | 0.852 | 0.85 | 1.02 | 1.02 | 1.06 | 1.01 | 1.01 | 1.03 | 1.1 | 1.08 | 1.18 |
| NCI-H2228 | 0.342 | 0.346 | 0.269 | 0.374 | 0.4 | 0.509 | 0.651 | 0.618 | 0.142 | 1.17 | 0.991 | – | 1.35 | 0.948 | 0.994 | 0.996 | 0.946 | 0.616 |
